The text below walks through data of patent US20240383904A1, “HETEROCYCLIC COMPOUNDS” (Hoffmann-La Roche Inc., priority 2021, published 2024).

The assay concerns the target T1, MAGL (Homo sapiens, UniProt Q99685).
T1 sequence (Q99685 1-303): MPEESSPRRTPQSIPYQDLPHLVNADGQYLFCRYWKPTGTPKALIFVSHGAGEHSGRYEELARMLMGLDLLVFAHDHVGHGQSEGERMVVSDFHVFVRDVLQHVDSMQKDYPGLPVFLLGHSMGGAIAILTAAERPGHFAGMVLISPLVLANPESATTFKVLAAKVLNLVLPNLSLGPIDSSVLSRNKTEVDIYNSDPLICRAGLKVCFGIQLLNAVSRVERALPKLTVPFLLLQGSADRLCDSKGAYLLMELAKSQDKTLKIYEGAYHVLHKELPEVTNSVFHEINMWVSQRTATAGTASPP
Nature of the assay: 2-AG assay: MAGL inhibitory activity by hydrolysis of 2-arachidonoylglycerol to arachidonic acid, followed by mass spectrometry. The class given is biochemical. The following applies: 15 min preincubation, 30 min reaction at RT, 8 μM 2-arachidonoylglycerol.
In turn, `N=[S@](=O)(c1ccc(CC2CC3(C2)CN(C(=O)N2CC4(COC(=O)N4)C2)C3)cc1)C(F)(F)F` [Example 359] had a concentration for half-maximal inhibition (IC50) of 0.32 nM.

In the case of `O=C1CCC2(CN(C(=O)N3CC4(CC(Cc5cccc(S(=O)(=O)C(F)(F)F)c5)C4)C3)C2)N1` [Example 360, 2-[6-(3-triflylbenzyl)-2-azaspiro[3.3]heptane-2-carbonyl]-2,5-diazaspiro[3.4]octan-6-one], the IC50 was found to be 0.2 nM.

For the molecule `O=C1CCC2(CN(C(=O)N3CC4(CN(Cc5ccc(C(F)(F)F)cc5F)C4)C3)C2)N1` [Example 361, 2-[6-[2-fluoro-4-(trifluoromethyl)benzyl]-2,6-diazaspiro[3.3]heptane-2-carbonyl]-2,5-diazaspiro[3.4]octan-6-one], the IC50 stood at 5.8 nM.

The molecule `O=C1COCC2(CN(C(=O)N3CC4(CC(Cn5ncc(C(F)(F)F)n5)C4)C3)C2)N1` [Example 362, 2-[6-[[4-(trifluoromethyl)triazol-2-yl]methyl]-2-azaspiro[3.3]heptane-2-carbonyl]-8-oxa-2,5-diazaspiro[3.5]nonan-6-one] came in with an IC50 of 78.2 nM.

`O=C1COCC2(CN(C(=O)N3CC4(CC(Cc5nc(C(F)(F)F)ns5)C4)C3)C2)N1` [Example 363, 2-[6-[[3-(trifluoromethyl)-1,2,4-thiadiazol-5-yl]methyl]-2-azaspiro[3.3]heptane-2-carbonyl]-8-oxa-2,5-diazaspiro[3.5]nonan-6-one] came in with an IC50 of 54.9 nM.

Molecule `Cc1cc(C(F)F)n(CC2CC3(C2)CN(C(=O)N2CC4(COCC(=O)N4)C2)C3)n1` [Example 364, 2-[6-[[5-(difluoromethyl)-3-methyl-pyrazol-1-yl]methyl]-2-azaspiro[3.3]heptane-2-carbonyl]-8-oxa-2,5-diazaspiro[3.5]nonan-6-one] had an IC50 of 27.2 nM.

Turning to `O=C1COCC2(CN(C(=O)N3CC4(CC(Cc5cnn(C(F)(F)F)c5)C4)C3)C2)N1` [Example 365, 2-[6-[[1-(trifluoromethyl)pyrazol-4-yl]methyl]-2-azaspiro[3.3]heptane-2-carbonyl]-8-oxa-2,5-diazaspiro[3.5]nonan-6-one], the IC50 came to 41 nM.

For `Cn1ncc(C(F)(F)F)c1CC1CC2(C1)CN(C(=O)N1CC3(COCC(=O)N3)C1)C2` [Example 366, 2-[6-[[2-methyl-4-(trifluoromethyl)pyrazol-3-yl]methyl]-2-azaspiro[3.3]heptane-2-carbonyl]-8-oxa-2,5-diazaspiro[3.5]nonan-6-one], inhibition was half-maximal at 22.4 nM (IC50).

Consider `Cn1nc(CC2CC3(C2)CN(C(=O)N2CC4(COCC(=O)N4)C2)C3)cc1C(F)(F)F` [Example 367, 2-[6-[[1-methyl-5-(trifluoromethyl)pyrazol-3-yl]methyl]-2-azaspiro[3.3]heptane-2-carbonyl]-8-oxa-2,5-diazaspiro[3.5]nonan-6-one], for which inhibition was half-maximal at 2.88 nM (IC50).

The molecule `Cn1ncc(CC2CC3(C2)CN(C(=O)N2CC4(COCC(=O)N4)C2)C3)c1C(F)(F)F` [Example 368, 2-[6-[[1-methyl-5-(trifluoromethyl)pyrazol-4-yl]methyl]-2-azaspiro[3.3]heptane-2-carbonyl]-8-oxa-2,5-diazaspiro[3.5]nonan-6-one] yielded an IC50 of 4.11 nM.

In the case of `O=C1COCC2(CN(C(=O)N3CC4(CC(Cc5nc(C(F)(F)F)cs5)C4)C3)C2)N1` [Example 369], the IC50 came to 23.1 nM.

In turn, `Cn1cc(CC2CC3(C2)CN(C(=O)N2CC4(COCC(=O)N4)C2)C3)c(C(F)(F)F)n1` [Example 370, 2-[6-[[1-methyl-3-(trifluoromethyl)pyrazol-4-yl]methyl]-2-azaspiro[3.3]heptane-2-carbonyl]-8-oxa-2,5-diazaspiro[3.5]nonan-6-one] had an IC50 of 11.8 nM.

`O=C1COCC2(CN(C(=O)N3CC4(CC(Cc5ncc(F)cc5F)C4)C3)C2)N1` [Example 371, 2-[6-[(3,5-difluoro-2-pyridyl)methyl]-2-azaspiro[3.3]heptane-2-carbonyl]-8-oxa-2,5-diazaspiro[3.5]nonan-6-one] registered an IC50 of 9.04 nM.

Take `O=C1COCC2(CN(C(=O)N3CC4(CN(Cc5ccc(C(F)(F)F)cc5F)C4)C3)C2)N1` [Example 372, 2-[6-[2-fluoro-4-(trifluoromethyl)benzyl]-2,6-diazaspiro[3.3]heptane-2-carbonyl]-8-oxa-2,5-diazaspiro[3.5]nonan-6-one]: half-maximal inhibition (IC50) required 15.6 nM.

For the molecule `O=C1COCC2(CN(C(=O)N3CC4(CN(Cc5ccc(S(=O)(=O)C(F)(F)F)cc5F)C4)C3)C2)N1` [Example 373, 2-[6-(2-fluoro-4-triflyl-benzyl)-2,6-diazaspiro[3.3]heptane-2-carbonyl]-8-oxa-2,5-diazaspiro[3.5]nonan-6-one], the midpoint of inhibition, the IC50, lay at 59.2 nM. Compared with the last molecule, the IC50 is about 3.8-fold higher.

Consider `CC(C)(C)c1coc(CN2CC3(C2)CN(C(=O)N2CC4(CCC(=O)N4)C2)C3)n1` [Example 374, 2-[6-[(4-tert-butyloxazol-2-yl)methyl]-2,6-diazaspiro[3.3]heptane-2-carbonyl]-2,5-diazaspiro[3.4]octan-6-one], for which the IC50 was determined as 88.7 nM.

`O=C1CCC2(CN(C(=O)N3CC4(CN(Cc5ccc[nH]c5=O)C4)C3)C2)N1` [Example 375, 2-[6-[(2-keto-1H-pyridin-3-yl)methyl]-2,6-diazaspiro[3.3]heptane-2-carbonyl]-2,5-diazaspiro[3.4]octna-6-one]: the IC50 was 1850 nM.
